Results from PubChem BioAssay (NCI).
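Briefly, cells in 96-well plates were exposed to five compound concentrations for 48 h, and endpoints were estimated by linear interpolation. GI50 marks 50% less growth. TGI is the concentration that stops growth completely.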

Key:
Assay in all cases: DTP human tumour cell line panel, 48 h
M14 melanoma = test system: M14 melanoma
NCI-H226 lung = test system: NCI-H226 lung
SF-295 CNS = test system: SF-295 CNS
UO-31 renal = test system: UO-31 renal
HCT-116 colon = test system: HCT-116 colon
K-562 leukemia = test system: K-562 leukemia
SF-539 CNS = test system: SF-539 CNS
OVCAR-4 ovarian = test system: OVCAR-4 ovarian
MALME-3M melanoma = test system: MALME-3M melanoma
SNB-75 CNS = test system: SNB-75 CNS

Compound	TGI (M14 melanoma) [µM]	TGI (NCI-H226 lung) [µM]	TGI (SF-295 CNS) [µM]	TGI (UO-31 renal) [µM]	TGI (HCT-116 colon) [µM]	TGI (K-562 leukemia) [µM]	TGI (SF-539 CNS) [µM]	TGI (OVCAR-4 ovarian) [µM]	TGI (MALME-3M melanoma) [µM]	TGI (SNB-75 CNS) [µM]	GI50 (M14 melanoma) [µM]	GI50 (NCI-H226 lung) [µM]	GI50 (SF-295 CNS) [µM]	GI50 (UO-31 renal) [µM]	GI50 (HCT-116 colon) [µM]	GI50 (K-562 leukemia) [µM]	GI50 (SNB-75 CNS) [µM]	GI50 (SF-539 CNS) [µM]	GI50 (OVCAR-4 ovarian) [µM]	GI50 (MALME-3M melanoma) [µM]
Cc1[nH]c2ccccc2c1-c1cc(-c2cc(-c3c(C)[nH]c4ccccc34)nc(N)n2)nc(N)n1	> 100	> 100	> 100	> 100	> 100	> 100	> 100	> 100	> 100											
CN1C(c2ccccc2)CS(=O)(=O)CS1(=O)=O (stereo not given)	> 100		> 100	> 100	> 100		> 100	> 100	> 100	> 100										
Nc1nc2cc3ccc(C4CC(O)C(CO)O4)cc3cc2c(=O)[nH]1 (stereo not given)	> 100	> 100	> 100	> 100	> 100	> 100	> 100	> 100		> 100	> 100	> 100	> 100	94.6	> 100	> 100	49.6	> 100	> 100	
Cc1cc2cn3c4ccc(O)cc4[nH]c(=O)c3c2cc1C		0.859	0.221	1.84		0.329	0.0601	1.81				0.0399	0.0356	0.0228				0.0223	0.0675	
OC(COc1ccc(F)cc1)Cn1cnc2c(Cl)ncnc21 (stereo not given)		> 100	> 100	> 100	> 100		> 100	> 100	> 100	> 100		> 100	> 100	> 100	> 100		> 100	> 100	> 100	33.6
O=Cc1ccc(-c2ccc(-c3nc4ccccc4o3)cc2)s1	70	90.2	87.8	> 100	42.6	> 100		> 100			26.6	31.5	24.2	38.5	19.3	37			34.9	
NC(=O)c1coc(C2OC(CO)C(O)C2O)n1 (stereo not given)	> 100	> 100		> 100	> 100	> 100	> 100	> 100	> 100											
COC(=O)CCC(=O)Nc1cc(Cl)ccc1Cl	> 100	> 100	> 100	> 100	> 100	> 100	> 100	> 100	> 100											
O=C(c1ccccc1)c1oc2ccc(Br)cc2c1-c1cnn(-c2ccccc2)c1	> 100		> 100	> 100		> 100		> 100	> 100	> 100										
S=C(Nc1ccc(Cl)cc1)Nc1ccc(-c2nc3ccccc3o2)cc1	52.9		42.8	26.1	26.4	> 100	41.8	> 100	59.9	72.2	23.2		13.7	11.6	13.6	22.6	37.7	19.2	25.1	23.8
CCN1C2=NCCN2S(=O)(=O)c2ccccc21	> 100	> 100	> 100	> 100	> 100	> 100	> 100	> 100												
O=C(/C=C/C=C/c1c(C2CC2)nc2ccccc2c1-c1ccc(F)cc1)c1cccs1		3.49	5.97	3.05			6.65	14.7		> 100		1.5	1.95	1.16			> 100	2.39	1.64	
O=C(O)CCC/C=C\C[C@H]1C=CC(=O)/C1=C/C[C@@H](O)CCc1cccc(C(F)(F)F)c1	6.76		6.09	3.16	3.17	10.1	6.57	16.8	19.3	22.2	2		2.5	1.68	1.27	2.24	9.41	2.46	3.94	4.75
CCCCCCCCCCCCCCCC[N+](C)(CCO)Cc1cnc[nH]1 (stereo not given)	2.22	7.72	4.01	> 100		> 100	4.75	56.4	6.54	5.86	0.598	1.51	1.18	23		1.57	1.11	1.78	0.978	2.01
COc1ccc(Cc2cc3c(cc2OCC(=O)O)OCO3)cc1	> 100		> 100	> 100	> 100	> 100	> 100	> 100	> 100											
COc1ccc(N/N=C(\CCN(C)C)c2ccccc2)cc1	24.2		1.65	3.99	13.8	7.31	3.69	17.1	35.2	53										
Cc1ccc(C2NC(=O)c3ccccc3N2)s1 (stereo not given)	> 100		6.87	> 100	> 100	> 100	14.4		> 100											
COc1ccc(C(=O)C(c2ccc(OC)cc2)C2OC(=O)C(Cl)=C2Cl)cc1 (stereo not given)	> 100	> 100	> 100	> 100	> 100	> 100	> 100	> 100	> 100											
CC(=O)O[C@@H]1[C@@H](O)C2=C3[C@]4(C)[C@@H]1C(C)(C)C(=O)C[C@@H]4[C@]3(O)[C@H](OC(C)=O)[C@@]1(C[C@@H]1C)C2=O	91.9		42.1	33.9	30.8	> 100	56.1	43.9	29.3	75.4										
CC#C/C(=N\OC[C@H]1COCCN1)c1ccc2ncnc(Nc3ccc(OCc4cccc(F)c4)c(Cl)c3)c2c1	3.59	40.3	3.26	2.41	3.42		3.2	3.16		2.82	1.76	12	1.72	1.13	1.69		1.46	1.68	1.52	
COc1ccc(/C=C2\CC(C)CC3C2=NN(C(C)=O)C3c2ccc(OC)cc2)cc1 (stereo not given)		39.1	41.8	64.8		96.3	38.1	36.5	37.9	53.3		16.5	18.2	19		10.1	17.7	19	12.2	17.8
CN(C)CCSc1cccc(-c2cc(-c3cccc(SCCN(C)C)c3)nc(SCCN(C)C)n2)c1	2.99		3.52	27.9	2.95	3.1	3.19	3.04	3.38	12.1										
O=c1c(O)cccc2cc(O)c(O)c(O)c12	> 100	> 100	> 100	> 100	> 100	> 100	> 100		> 100		30.6	> 100	5.28	2.54	7.67	3.95		5.01		4.99
COC1=CC23CCCN2CCc2cc4c(cc2C3C1O)OCO4 (stereo not given)	> 100	> 100	> 100	> 100	> 100		> 100	> 100	> 100	> 100										
O=C1c2ccccc2NC1(c1ccccc1)c1c(-c2ccccc2)[nH]c2ccccc12 (stereo not given)	> 100		> 100	> 100	> 100	> 100	> 100	> 100		> 100										
COC(=O)Nc1nc2ccc(C(=O)c3ccc(N(C)C4COC4)cc3)cc2[nH]1	> 100	> 100	> 100	> 100	> 100	> 100	1.16	> 100		> 100	0.279	1.99	0.28	0.883	0.36	0.333	0.227	0.264	2.85	
NCCN.NCCN.O=C[O-].O=C[O-].[Co+3].[O-][Cl+3]([O-])([O-])[O-]	> 100	> 100	> 100	> 100	> 100	> 100	> 100	> 100		> 100	> 100	> 100	> 100	> 100	> 100	> 100	> 100	> 100	> 100	
O=C(/C=N/O)Nc1cc(Cl)c(Cl)cc1Cl	> 100		87.6	> 100	90.1	> 100	> 100	> 100	> 100	66.6										
